{"source": "patent US11357779B2", "about": "(G1 Therapeutics, Inc., priority 2018, dated 2022)", "key": {"clinical": {"test": "clinical", "conditions": "human, in vivo"}, "[1]": {"test": "Apparent volume of distribution (Vd/F)", "format": "in vivo", "conditions": "human, plasma, oral; 200 mg QD of compound II", "experimental": "“Vd/F” (Liters) as used herein means the theoretical volume that would be necessary to contain the total amount of an administered drug at the same concentration that it is observed in the blood plasma. It is generally defined as the distribution of a medication between plasma and the rest of the body after oral or parenteral dosing. “Vd/F” as used herein is calculated by using the terminal elimination rate constant, which is derived mathematically from the concentration vs time curve to extrapolate a value of plasma concentration at time zero. Volume of distribution for oral drugs is normally expressed as Vd/F or Vz/F. The skilled artisan is familiar with calculating Vd/F or Vz/F.\nThe apparent volume of distribution (Vd/F) was calculated from the terminal rate constant (ke) derived from the plasma concentration-versus-time data provided for Compound I in Example 1 when dosed with 200 mg QD of Form B of Compound II."}, "[2]": {"test": "Slurry conversion of impure Form B to pure Form B (small scale and scale-up, XRPD)", "format": "physicochemical", "experimental": "Approximately 16 small scale slurry experiments were carried out by varying the slurry concentration, temperature, HCl acid molar concentration, and content in the aqueous acetone mixtures as well as the water content. Slurries of impure Form B were performed in a given solvent system at targeted calculated concentration at ambient or elevated temperatures for various time/durations. The solids were isolated by vacuum filtration and submitted for XRPD analysis. The specific experimental conditions are detailed in Table 109 where solvent system ratios are by volume.\nThe slurries in acidic aqueous acetone mixtures at an elevated temperature of 50° C. […] FIG. 19 compares XRPD patterns of Sample 3 and 5 to the starting material of the experiments, impure Form B and to pure Form B. For comparison purposes, the samples were also compared to a second impure sample of Form B, (Impure Form B Sample 2 in FIG. 19). This second impure Form B contained larger amounts of the unknown Form than the impure Form B previously described in Example 8.\nSeveral slurry experiments were performed in water:acetone solvent systems starting with impure Form B and varying the water:acetone ratio, slurry concentration, and time. Based on the initial slurry results, experiments in 1:2 (v/v) water:acetone at ambient temperature were performed with aliquots taken after 16 hours (Sample 6) and 20.5 hours (Sample 7). The slurry in this solvent system was conducted at a concentration of 100-125 mg/mL and ambient temperature. The XRPD patterns of the resulting materials were consistent with pure Form B (FIG. 20).\nIn an effort to improve the yield, water:acetone 1:3 (v/v) was used at 150 mg/mL concentration (Samples 13 and 14) however, the conversion was not completed even after 4 days (FIG. 21). Therefore, one experiment was performed using water:acetone 1:2 (v/v) slurry for 18 hours and then adding acetone to reach ratio water:acetone 1:4 (v/v) followed by slurry for 4 hours (Sample 12). The XRPD pattern of the resulting material was consistent with Form B, however, one of the undesired peaks reappeared shifted from 3.95 °2θ to 4.2 °2θ (FIG. 21).\nThe Julabo FP50 temperature control unit contained Julabo Thermal C10 fluid and the reactor temperature was measured with a K-type PTFE temperature probe. The experiments were carried out with Lara Control software version 2.3.5.0. The software tracked circulator temperature, vessel temperature, and stir rate, recording readings every tenth of a second throughout the experiment.\nThe reactor vessel was charged with the solids of impure Form B (58.86 g) in 471 mL of a water:acetone 1:2 (v/v) solvent system achieving 125 mg/mL slurry concentration (Samples 20-23). The resulting slurry was stirred at 30° C. for up to 43 hours with stirring speed of 400 rpm. The slurry was cooled to 25° C. over 30 minutes, discharged from the reactor vessel, and immediately slowly filtered (drop by drop) to […]. A water:acetone 1:2 (v/v) wash solution was prepared in advance and used to wash the filter cake in one portion.\nPulls were taken usually at the 20th hour and if needed at later time points (Table 110).\nThe conversion of impure Form B to pure Form B was conducted in water:acetone 1:2 (v/v) slurry at 125 mg/mL concentration and 30° C. for 43 hours. Very slow filtration was observed and the wet cake was air-dried at ambient conditions for 3.5 hours followed by vacuum drying at ambient temperature and 15 in Hg for 0.5 hour and then at ˜27 in Hg for 3.5 hours yielding 49.26 g ([…])."}, "[3]": {"test_system": "HR+, HER2− locally advanced or metastatic breast cancer", "test": "Clinical efficacy of Form B of Compound II plus fulvestrant, RECIST Version 1.1", "format": "in vivo, human", "conditions": "FIG. 3, FIG. 4; with fulvestrant", "experimental": "Target lesions in subjects from Example 1 were evaluated every 8 weeks using the RECIST, Version 1.1 criteria (Eisenhower 2009) as follows: • Complete Response (CR): Disappearance of all target lesions. Any pathological lymph nodes (whether target or nontarget) must have reduction in short axis to <10 mm. • Partial Response (PR): At least a 30% decrease in the sum of diameters of target lesions, taking as reference the baseline sum of diameters. • Progressive Disease (PD): At least a 20% increase in the sum of diameters of target lesions, taking as reference the smallest sum on study (this includes the baseline sum if that is the smallest on study). […] A response category of not evaluable (NE) was used when there was inadequate information to otherwise categorize the response status. • Non-target lesions were evaluated using the following criteria: • Complete Response (CR): Disappearance of all nontarget lesions and normalization of tumor marker level. […]\nThe overall response (OR) was determined by evaluation of the combination of target and nontarget lesion responses as outlined in Table 94.\nThe clinical efficacy of the combination of Form B of Compound II and fulvestrant for QD dosing for the subjects from Example 1 was evaluated using the above criteria. […]"}}}
{"smiles": "CC(C)N1CCN(c2ccc(Nc3ncc4cc5n(c4n3)C3(CCCCC3)CNC5=O)nc2)CC1", "note": "[Compound I, 2′-((5-(4-isopropylpiperazin-1-yl)pyridin-2-yl)amino)-7′,8′-dihydro-6′H-spiro[cyclohexane-1,9′-pyrazino[1′,2′:1,5]pyrrolo[2,3-d]pyrimidin]-6′-one]", "values": [{"measurement": "AUC(0-t)", "setting": "clinical; 200 mg", "value": 229, "unit": "ng·h/mL"}, {"measurement": "AUC(0-t)", "setting": "clinical; 300 mg", "value": 592, "unit": "ng·h/mL"}, {"measurement": "AUC(0-t)", "setting": "clinical; 400 mg", "value": 278, "unit": "ng·h/mL"}, {"measurement": "AUC(0-t)", "setting": "clinical; 500 mg", "value": 607, "unit": "ng·h/mL"}, {"measurement": "(AUC0-24,ss)/ANC", "setting": "clinical; 650 mg", "value": 0.89}, {"measurement": "AUC(0-t)", "setting": "clinical; 650 mg", "value": 956, "unit": "ng·h/mL"}, {"measurement": "Vd/F", "setting": "[1]", "value": 15200, "unit": "L"}]}
{"smiles": "CC(C)N1CCN(c2ccc(Nc3ncc4cc5n(c4n3)C3(CCCCC3)CNC5=O)nc2)CC1", "note": "[Compound II, 2′-((5-(4-isopropylpiperazin-1-yl)pyridin-2-yl)amino)-7′,8′-dihydro-6′H-spiro[cyclohexane-1,9′-pyrazino[1′,2′:1,5]pyrrolo[2,3-d]pyrimidin]-6′-one]", "values": [{"measurement": "XRPD Result", "setting": "[2]; 125 mg/mL Slurry, 30° C., 20 h", "value": "Form B + small broad"}, {"measurement": "XRPD Result", "setting": "[2]; 125 mg/mL Slurry, 30° C., 24 h", "value": "B + broad peaks at 4.2°"}, {"measurement": "XRPD Result", "setting": "[2]; 125 mg/mL Slurry, 30° C., 42 h", "value": "Form B"}, {"measurement": "XRPD Result", "setting": "[2]; 125 mg/mL Slurry, 30° C., 43 h VF, washed with 50 mL of H2O:acetone 1:2, Air-dried for 3.5 h", "value": "Form B"}, {"measurement": "XRPD Result", "setting": "[2]; Vacuum drying, 22° C., 0.5 h, 15 in Hg, 22° C. 1.5 h, 27-28 in Hg", "value": "Form B"}, {"measurement": "XRPD Result", "setting": "[2]; Vacuum drying, 22° C., 2.0 h, 27 in Hg", "value": "Form B"}]}
{"smiles": "CC(C)N1CCN(c2ccc(Nc3ncc4cc5n(c4n3)C3(CCCCC3)CNC5=O)nc2)CC1", "note": "[Form B]", "values": [{"measurement": "anti-tumor activity (waterfall and spider plots, target lesions)", "setting": "[3]", "value": "effective anti-tumor activity"}]}
